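Protocol summary: plate cells (96-well), add compound at 5 concentrations, incubate 48 h, interpolate endpoints linearly. Here, GI50 denotes the concentration required for 50% inhibition of growth. TGI marks complete inhibition of growth.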
Tested on: HL-60(TB) leukemia
Test: inhibition of tumour cell growth, NCI panel, 48 h

Point of comparison: COc1ccc(C2C(C#N)=C(N)OC3=C2COc2ccc(F)cc23)cc1OC (centres undefined), GI50 34.2 µM. Against it:
- COc1ccc(-c2cc(-c3cccn3C)c(C#N)c(N)n2)cc1OC — 1.7-fold lower, 19.6 µM
- Nc1c(C(=O)N/N=C/c2ccc(-c3ccc(Cl)cc3)o2)cnn1-c1ccnc2c(C(F)(F)F)cccc12 — higher, > 100 µM
- c1ccc2c3ccn4cc5c(cc4c-3nc2c1)CCCC5 — 42-fold lower, 0.81 µM
- CN(C)Cc1c[nH]c2c1C(=O)c1c(c(O)c3ccccc3c1O)C2=O — 2-fold lower, 17.2 µM

Point of comparison: CN(C)Cc1c[nH]c2c1C(=O)c1c(c(O)c3ccccc3c1O)C2=O, TGI 75.7 µM. Against it:
- COc1ccc(-c2cc(-c3cccn3C)c(C#N)c(N)n2)cc1OC — higher, > 100 µM
- COc1ccc(C(=O)C(CO)Oc2ccccc2OC)cc1OC (centres undefined) — higher, > 100 µM
- N#CC(/C(=N/NC(=O)C(=O)NN)C(=O)NC12CC3CC(CC(C3)C1)C2)c1ccccc1 (centres undefined) — higher, > 100 µM
- CN=NN(C)C(=O)NC — higher, > 100 µM
- Nc1c(C(=O)N/N=C/c2ccc(-c3ccc(Cl)cc3)o2)cnn1-c1ccnc2c(C(F)(F)F)cccc12 — higher, > 100 µM
- c1ccc2c3ccn4cc5c(cc4c-3nc2c1)CCCC5 — 20-fold lower, 3.81 µM
- CCCCCCCCCc1cc(=O)c2c(O)cccc2o1 — within 1.5-fold, 93.9 µM
- CCOC(=O)CCc1c(C)c2c(OC(C)=O)cc(OC(C)=O)cc2oc1=O — higher, > 100 µM
- O=C(CN1CCCCC1)N1CCc2c([nH]c3ccccc23)C1c1cccnc1 (centres undefined) — higher, > 100 µM
- COC(=O)C12C3C4C5(C(=O)OC)C(C1C35C(=O)N(C(C)C)C(C)C)C42C(=O)N(C(C)C)C(C)C (centres undefined) — not separable, > 50 µM
- COc1ccc(C2C(C#N)=C(N)OC3=C2COc2ccc(F)cc23)cc1OC (centres undefined) — within 1.5-fold, 70.8 µM
- Cc1cc(C)n(CCNCCn2nc(C)cc2C)n1 — higher, > 100 µM
- O=C1CSC(Cc2nc3ccccc3[nH]2)=N1 — within 1.5-fold, 97.5 µM
- O=C(/C=C/c1ccccc1)/C=C/c1ccccc1 — within 1.5-fold, 78.8 µM
- N#C/C(=C\c1ccc(O)c(O)c1)C(N)=O — 3.2-fold lower, 23.9 µM
- N#CC(C(=O)/C(=N/Nc1nc(=S)[nH]n1N)C(C#N)c1ccccc1)c1ccccc1 (centres undefined) — higher, > 100 µM
- N#CC(C#N)=c1[nH]c2cccc3c2-c2c(cccc2c3=C(C#N)C#N)[nH]1 — higher, > 100 µM

Tested on: MALME-3M melanoma
Test: inhibition of tumour cell growth, NCI panel, 48 h

Point of comparison: CN(C)Cc1c[nH]c2c1C(=O)c1c(c(O)c3ccccc3c1O)C2=O, GI50 9.61 µM. Against it:
- CC(=O)Oc1ccccc1C(=O)N=C1[Se]CCN1C(=O)c1ccccc1OC(C)=O — 25-fold lower, 0.38 µM
- C#C[C@]1(O)CC[C@H]2[C@@H]3CC=C4c5sc(Nc6ccccc6)nc5CC[C@]4(C)[C@H]3CC[C@@]21C — 7.3-fold lower, 1.31 µM
- COc1ccc(-c2cc(-c3cccn3C)c(C#N)c(N)n2)cc1OC — higher, > 100 µM
- Nc1c(C(=O)N/N=C/c2ccc(-c3ccc(Cl)cc3)o2)cnn1-c1ccnc2c(C(F)(F)F)cccc12 — higher, > 100 µM
- CCOC(=O)C1=C(C)N(N)C(=S)NC1c1ccc(C)cc1 (centres undefined) — within 1.5-fold, 14.4 µM

Point of comparison: CN(C)Cc1c[nH]c2c1C(=O)c1c(c(O)c3ccccc3c1O)C2=O, TGI 23.3 µM. Against it:
- CC(=O)Oc1ccccc1C(=O)N=C1[Se]CCN1C(=O)c1ccccc1OC(C)=O — 16-fold lower, 1.45 µM
- O=S(O)CCCCSSCc1ccccc1CSSCCCCS(=O)O — within 1.5-fold, 28.5 µM
- O=C(O)Cc1c(O)ccc2ccccc12 — higher, > 100 µM
- CCOC(=O)c1[nH]c(COC(C)=O)c(CCCOC(C)=O)c1CCCOC(C)=O — higher, > 100 µM
- CSC1(CC(=O)N(C)C)C(=O)Nc2ccccc21 (centres undefined) — higher, > 100 µM
- C#C[C@]1(O)CC[C@H]2[C@@H]3CC=C4c5sc(Nc6ccccc6)nc5CC[C@]4(C)[C@H]3CC[C@@]21C — 6.1-fold lower, 3.79 µM
- O=C(Nc1ccc([N+](=O)[O-])cc1)C1C(=O)C(=O)N(c2ccc([N+](=O)[O-])cc2)C1=O (centres undefined) — higher, > 100 µM
- O=C(CCC/C(CC(=O)c1ccc(Br)cc1)=N\O)Nc1ccccc1 — higher, > 100 µM
- O=C(/C=C/c1c(O)ccc2ccccc12)c1ccc2ccccc2c1 — higher, > 100 µM
- CCOC(=O)C1N(S(=O)(=O)c2ccc(C)cc2)CCC12C(c1ccc(OC)cc1)NC1CCCCC12 (centres undefined) — higher, > 100 µM
- COc1ccccc1NC(=O)C1=C(C)NC(C)=C(C(=O)Nc2ccccc2OC)C1c1ccc([N+](=O)[O-])cc1 — higher, > 100 µM
- O=C(CSc1nnc(-c2ccccc2NC(=O)C(F)(F)F)c(=O)[nH]1)NC(=O)Nc1ccccc1 — higher, > 100 µM
- COC(=O)/C=C/C1C(C(=O)OC)C2(C(=O)OC)CCC1(C(=O)OC)N2 (centres undefined) — higher, > 100 µM
- CC(C)(C)N1CC2(CCCCC2)C1=O — higher, > 100 µM
- COc1ccc(-c2cc(-c3cccn3C)c(C#N)c(N)n2)cc1OC — higher, > 100 µM
- COc1ccc(C(=O)C(CO)Oc2ccccc2OC)cc1OC (centres undefined) — higher, > 100 µM
- N#CC(/C(=N/NC(=O)C(=O)NN)C(=O)NC12CC3CC(CC(C3)C1)C2)c1ccccc1 (centres undefined) — higher, > 100 µM
- CC(C)(C)C(=O)/C=C/c1ccc(Oc2ccccc2)cc1 — 1.9-fold higher, 44.6 µM
- CN=NN(C)C(=O)NC — higher, > 100 µM
- Nc1c(C(=O)N/N=C/c2ccc(-c3ccc(Cl)cc3)o2)cnn1-c1ccnc2c(C(F)(F)F)cccc12 — higher, > 100 µM
- CCCCCCCCCc1cc(=O)c2c(O)cccc2o1 — higher, > 100 µM
- CCOC(=O)CCc1c(C)c2c(OC(C)=O)cc(OC(C)=O)cc2oc1=O — 2.4-fold higher, 55.5 µM
- COC(=O)C12C3C4C5(C(=O)OC)C(C1C35C(=O)N(C(C)C)C(C)C)C42C(=O)N(C(C)C)C(C)C (centres undefined) — higher, > 50 µM
- O=C1CSC(Cc2nc3ccccc3[nH]2)=N1 — within 1.5-fold, 18.4 µM
- O=C(/C=C/c1ccccc1)/C=C/c1ccccc1 — 2.5-fold higher, 57.7 µM
- N#C/C(=C\c1ccc(O)c(O)c1)C(N)=O — higher, > 100 µM
- CCOC(=O)C1=C(C)N(N)C(=S)NC1c1ccc(C)cc1 (centres undefined) — higher, > 100 µM
- N#CC(C(=O)/C(=N/Nc1nc(=S)[nH]n1N)C(C#N)c1ccccc1)c1ccccc1 (centres undefined) — higher, > 100 µM
- O=C(O)c1ccccc1-c1ccccc1C(=O)Nc1ccc2c(c1)Cc1cc(F)ccc1-2 — 3.8-fold higher, 88.7 µM
- N#CC(C#N)=c1[nH]c2cccc3c2-c2c(cccc2c3=C(C#N)C#N)[nH]1 — higher, > 100 µM

Tested on: OVCAR-8 ovarian
Test: inhibition of tumour cell growth, NCI panel, 48 h

Point of comparison: COc1ccc(C2C(C#N)=C(N)OC3=C2COc2ccc(F)cc23)cc1OC (centres undefined), GI50 28.5 µM. Against it:
- CC(=O)Oc1ccccc1C(=O)N=C1[Se]CCN1C(=O)c1ccccc1OC(C)=O — 45-fold lower, 0.637 µM
- C#C[C@]1(O)CC[C@H]2[C@@H]3CC=C4c5sc(Nc6ccccc6)nc5CC[C@]4(C)[C@H]3CC[C@@]21C — 11-fold lower, 2.71 µM
- COc1ccc(/C=c2/sc3n(c2=O)C(c2ccc(OC)c(OC)c2)C2=C(N=3)c3cc(F)ccc3OC2)cc1 (centres undefined) — within 1.5-fold, 40.2 µM
- Cc1cn2c(/C=C3/C(=O)Nc4ccccc43)c(-c3ccc(Cl)cc3)nc2s1 — 2.8-fold lower, 10.2 µM
- Nc1nc(Nc2ccccc2)c2ncn(Cc3cc4c(cc3Br)OCO4)c2n1 — 170-fold lower, 0.17 µM
- O=C1c2ccn(CCCCNC(CO)(CO)CO)c2C(=O)c2c1c(O)c1ccccc1c2O — 13-fold lower, 2.17 µM
- COc1ccc(-c2cc(-c3cccn3C)c(C#N)c(N)n2)cc1OC — higher, > 100 µM
- C#CC(=O)Nc1cccc(Nc2nc3c(c(NCc4ccccc4)n2)CCCC3)c1 — 2000-fold lower, 0.0144 µM
- c1ccc2c3ccn4cc5c(cc4c-3nc2c1)CCCC5 — 7.9-fold lower, 3.62 µM
- CCOC(=O)C1=C(C)N(N)C(=S)NC1c1ccc(C)cc1 (centres undefined) — higher, > 100 µM
- CN(C)Cc1c[nH]c2c1C(=O)c1c(c(O)c3ccccc3c1O)C2=O — 3.3-fold lower, 8.56 µM

Point of comparison: CC(=O)Oc1ccccc1C(=O)N=C1[Se]CCN1C(=O)c1ccccc1OC(C)=O, TGI 2.7 µM. Against it:
- O=S(O)CCCCSSCc1ccccc1CSSCCCCS(=O)O — 33-fold higher, 89.5 µM
- O=C(O)Cc1c(O)ccc2ccccc12 — higher, > 100 µM
- CCOC(=O)c1[nH]c(COC(C)=O)c(CCCOC(C)=O)c1CCCOC(C)=O — higher, > 100 µM
- C#C[C@]1(O)CC[C@H]2[C@@H]3CC=C4c5sc(Nc6ccccc6)nc5CC[C@]4(C)[C@H]3CC[C@@]21C — 9.9-fold higher, 26.8 µM
- COc1ccc(/C=c2/sc3n(c2=O)C(c2ccc(OC)c(OC)c2)C2=C(N=3)c3cc(F)ccc3OC2)cc1 (centres undefined) — higher, > 100 µM
- O=C(Nc1ccc([N+](=O)[O-])cc1)C1C(=O)C(=O)N(c2ccc([N+](=O)[O-])cc2)C1=O (centres undefined) — higher, > 100 µM
- Cc1cn2c(/C=C3/C(=O)Nc4ccccc43)c(-c3ccc(Cl)cc3)nc2s1 — 8.7-fold higher, 23.6 µM
- O=C(CCC/C(CC(=O)c1ccc(Br)cc1)=N\O)Nc1ccccc1 — higher, > 100 µM
- O=C(/C=C/c1c(O)ccc2ccccc12)c1ccc2ccccc2c1 — higher, > 100 µM
- CCOC(=O)C1N(S(=O)(=O)c2ccc(C)cc2)CCC12C(c1ccc(OC)cc1)NC1CCCCC12 (centres undefined) — higher, > 100 µM
- COc1ccccc1NC(=O)C1=C(C)NC(C)=C(C(=O)Nc2ccccc2OC)C1c1ccc([N+](=O)[O-])cc1 — higher, > 100 µM
- Nc1nc(Nc2ccccc2)c2ncn(Cc3cc4c(cc3Br)OCO4)c2n1 — 3.2-fold lower, 0.832 µM
- O=C(CSc1nnc(-c2ccccc2NC(=O)C(F)(F)F)c(=O)[nH]1)NC(=O)Nc1ccccc1 — higher, > 100 µM
- O=C1c2ccn(CCCCNC(CO)(CO)CO)c2C(=O)c2c1c(O)c1ccccc1c2O — 4.2-fold higher, 11.4 µM
- COC(=O)/C=C/C1C(C(=O)OC)C2(C(=O)OC)CCC1(C(=O)OC)N2 (centres undefined) — higher, > 100 µM
- CC(C)(C)N1CC2(CCCCC2)C1=O — higher, > 100 µM
- COc1ccc(-c2cc(-c3cccn3C)c(C#N)c(N)n2)cc1OC — higher, > 100 µM
- C#CC(=O)Nc1cccc(Nc2nc3c(c(NCc4ccccc4)n2)CCCC3)c1 — 2.4-fold lower, 1.12 µM
- COc1ccc(C(=O)C(CO)Oc2ccccc2OC)cc1OC (centres undefined) — higher, > 100 µM
- N#CC(/C(=N/NC(=O)C(=O)NN)C(=O)NC12CC3CC(CC(C3)C1)C2)c1ccccc1 (centres undefined) — higher, > 100 µM
- CC(C)(C)C(=O)/C=C/c1ccc(Oc2ccccc2)cc1 — higher, > 100 µM
- CN=NN(C)C(=O)NC — higher, > 100 µM
- c1ccc2c3ccn4cc5c(cc4c-3nc2c1)CCCC5 — 19-fold higher, 51.2 µM
- CCCCCCCCCc1cc(=O)c2c(O)cccc2o1 — higher, > 100 µM
- CCOC(=O)CCc1c(C)c2c(OC(C)=O)cc(OC(C)=O)cc2oc1=O — higher, > 100 µM
- O=C(CN1CCCCC1)N1CCc2c([nH]c3ccccc23)C1c1cccnc1 (centres undefined) — higher, > 100 µM
- COC(=O)C12C3C4C5(C(=O)OC)C(C1C35C(=O)N(C(C)C)C(C)C)C42C(=O)N(C(C)C)C(C)C (centres undefined) — higher, > 50 µM
- COc1ccc(C2C(C#N)=C(N)OC3=C2COc2ccc(F)cc23)cc1OC (centres undefined) — higher, > 100 µM
- Cc1cc(C)n(CCNCCn2nc(C)cc2C)n1 — higher, > 100 µM
- O=C1CSC(Cc2nc3ccccc3[nH]2)=N1 — 28-fold higher, 74.9 µM
- N#C/C(=C\c1ccc(O)c(O)c1)C(N)=O — higher, > 100 µM
- CCOC(=O)C1=C(C)N(N)C(=S)NC1c1ccc(C)cc1 (centres undefined) — higher, > 100 µM
- N#CC(C(=O)/C(=N/Nc1nc(=S)[nH]n1N)C(C#N)c1ccccc1)c1ccccc1 (centres undefined) — higher, > 100 µM
- O=C(O)c1ccccc1-c1ccccc1C(=O)Nc1ccc2c(c1)Cc1cc(F)ccc1-2 — higher, > 100 µM
- CN(C)Cc1c[nH]c2c1C(=O)c1c(c(O)c3ccccc3c1O)C2=O — 11-fold higher, 29.8 µM
- N#CC(C#N)=c1[nH]c2cccc3c2-c2c(cccc2c3=C(C#N)C#N)[nH]1 — higher, > 100 µM
